Laboratory results taken from patent US11999727B2 (Tango Therapeutics, Inc., priority 2020, dated 2024).

Assays:
PRMT5 [1] = molecular target: T1, PRMT5 (Homo sapiens, UniProt O14744); experiment: PRMT5 biochemical IC50 assay with SAM as cofactor; conditions: PRMT5, SAM as cofactor; read-out: SAM IC50
T1 construct: purchased Viva (custom protein)

PRMT5 [2] = molecular target: T1, PRMT5; experiment: PRMT5 biochemical IC50 assay with no cofactor; conditions: PRMT5, no cofactor; read-out: No Cofactor/rel IC50
Excerpt: Table 1 indicates IC50 values (μM) against PRMT5 for exemplary compounds in the presence of SAM as cofactor, with no cofactor, and with MTA as cofactor, respectively (columns 4-6). […] Ki values can be calculated from the IC50 values as described in the Examples section. As detailed in the Examples section, for the assay performed in the presence of SAM, IC50=Ki×1.5 (Ki=IC50/1.5).

PRMT5 [3] = molecular target: T1, PRMT5; experiment: PRMT5 biochemical IC50 assay with MTA as cofactor; conditions: PRMT5, MTA as cofactor; read-out: MTA IC50
[4] = tested on: HAP1 MTAP-intact cell line; experiment: SDMA in-cell western assay, HAP1 MTAP-intact; type: cell-based; conditions: Homo sapiens, HAP1, SDMA in-cell western, HAP1 MTAP-intact; read-out: MTAP HAP1 intact IC50
Procedure, shortened: (§1)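 Compounds were tested in HAP1 cells differing only in MTAP status (endogenous expression versus null). Cellular SDMA levels were then measured by in-cell western, giving an IC50 in each background.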

[5] = tested on: HAP1 MTAP-deleted cell line; experiment: SDMA in-cell western assay, HAP1 MTAP-deleted; type: cell-based; conditions: for IC50: Homo sapiens, HAP1, SDMA in-cell western, HAP1 MTAP-deleted, read-out: HAP1 MTAP deleted IC50; for MTAP intact/deleted ratio: IC50 ratio HAP1 MTAP-intact / HAP1 MTAP-deleted, SDMA in-cell western
Procedure, shortened: as §1

[6] = tested on: HAP1 MTAP-deleted cell line; experiment: Viability assay, MTAP-deleted cell line; type: cell-based; conditions: Homo sapiens, HAP1, viability assay, MTAP-deleted cell line; read-out: HAP1 MTAP deleted viability
Excerpt: Table 1 additionally indicates IC50 values in a viability assay for the MTAP-deleted cell line (column 10), indicating the effect of treatment with compound on cell survival.

T1 sequence (O14744 whole entry): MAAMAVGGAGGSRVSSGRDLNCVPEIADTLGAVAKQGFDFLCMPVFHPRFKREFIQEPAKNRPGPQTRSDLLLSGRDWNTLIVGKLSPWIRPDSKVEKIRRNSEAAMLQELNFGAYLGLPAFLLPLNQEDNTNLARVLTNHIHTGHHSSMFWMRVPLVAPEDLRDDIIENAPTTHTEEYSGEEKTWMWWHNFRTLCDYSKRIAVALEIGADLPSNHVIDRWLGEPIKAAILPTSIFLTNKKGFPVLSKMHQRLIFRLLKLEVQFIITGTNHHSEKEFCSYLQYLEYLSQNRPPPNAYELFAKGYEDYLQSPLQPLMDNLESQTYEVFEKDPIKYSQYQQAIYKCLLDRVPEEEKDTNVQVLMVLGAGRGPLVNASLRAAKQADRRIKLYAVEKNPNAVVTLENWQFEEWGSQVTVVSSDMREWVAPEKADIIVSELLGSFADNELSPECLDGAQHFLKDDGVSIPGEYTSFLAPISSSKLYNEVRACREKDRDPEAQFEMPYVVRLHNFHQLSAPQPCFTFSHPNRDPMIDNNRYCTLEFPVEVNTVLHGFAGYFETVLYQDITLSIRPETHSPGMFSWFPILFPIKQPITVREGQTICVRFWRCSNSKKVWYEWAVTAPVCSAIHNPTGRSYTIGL
T1 sequence (Q9BQA1 whole entry partner): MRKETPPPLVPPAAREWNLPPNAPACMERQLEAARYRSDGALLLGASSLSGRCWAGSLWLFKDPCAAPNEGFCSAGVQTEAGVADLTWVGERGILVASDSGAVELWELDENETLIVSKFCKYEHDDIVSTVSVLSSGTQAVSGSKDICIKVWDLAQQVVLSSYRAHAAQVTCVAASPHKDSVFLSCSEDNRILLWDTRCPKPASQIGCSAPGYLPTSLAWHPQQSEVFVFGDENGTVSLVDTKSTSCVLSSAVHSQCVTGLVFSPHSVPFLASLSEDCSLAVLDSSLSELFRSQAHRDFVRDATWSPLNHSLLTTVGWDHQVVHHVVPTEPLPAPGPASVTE

Structure (SMILES): C[C@@H]1CC[C@@H](c2ccc(F)c(F)c2)N(C(=O)C(=O)Nc2cncc(C(N)=O)c2)C1 (racemic) [Compound 263, rac-5-{2-[(2R,5S)-2-(3,4-Difluorophenyl)-5-methylpiperidin-1-yl]-2-oxoacetamido}pyridine-3-carboxamide]
- IC50 (PRMT5 [1]): 50 to 500 nM
- IC50 (PRMT5 [2]): 50 to 500 nM
- IC50 (PRMT5 [3]): < 50 nM
- IC50 [4]: > 1000 nM
- IC50 [5]: 100 to 1000 nM
- MTAP intact/deleted ratio [5]: A (an IC50 ratio greater than or equal to 10 fold)
- IC50 [6]: 1000 to 10000 nM

Structure (SMILES): C[C@@H]1CC[C@@H](c2ccc(OC3CCOC3)cc2)N(C(=O)C(=O)Nc2cncc(C(N)=O)c2)C1 (mixture of isomers) [Compound 264, rac-5-{2-[(2R,5S)-5-Methyl-2-[4-(oxolan-3-yloxy)phenyl]piperidin-1-yl]-2-oxoacetamido}pyridine-3-carboxamide]
- IC50 (PRMT5 [1]): 50 to 500 nM
- IC50 (PRMT5 [2]): 50 to 500 nM
- IC50 (PRMT5 [3]): 50 to 500 nM
- IC50 [4]: > 1000 nM
- IC50 [5]: < 100 nM
- MTAP intact/deleted ratio [5]: A (an IC50 ratio greater than or equal to 10 fold)
- IC50 [6]: 1000 to 10000 nM

Structure (SMILES): C[C@@H]1CC[C@@H](c2cccc(C(F)(F)F)c2)N(C(=O)C(=O)Nc2cncc(C(N)=O)c2)C1 (racemic) [Compound 265, rac-5-{2-[(2R,5S)-5-Methyl-2-[3-(trifluoromethyl)phenyl]piperidin-1-yl]-2-oxoacetamido}pyridine-3-carboxamide]
- IC50 (PRMT5 [1]): 50 to 500 nM
- IC50 (PRMT5 [2]): 50 to 500 nM
- IC50 (PRMT5 [3]): < 50 nM
- IC50 [4]: > 1000 nM
- IC50 [5]: 100 to 1000 nM
- MTAP intact/deleted ratio [5]: A (an IC50 ratio greater than or equal to 10 fold)
- IC50 [6]: 1000 to 10000 nM

Structure (SMILES): NC(=O)c1cncc(NC(=O)C(=O)N2C[C@@H](CO)CC[C@@H]2c2ccccc2)c1 (racemic) [Compound 266, 5-(2-(5-(hydroxymethyl)-2-phenylpiperidin-1-yl)-2-oxoacetamido)nicotinamide]
- IC50 (PRMT5 [1]): 50 to 500 nM
- IC50 (PRMT5 [2]): > 500 nM
- IC50 (PRMT5 [3]): 50 to 500 nM
- IC50 [4]: > 1000 nM
- IC50 [5]: 100 to 1000 nM
- MTAP intact/deleted ratio [5]: A (an IC50 ratio greater than or equal to 10 fold)
- IC50 [6]: > 10000 nM

Structure (SMILES): C[C@@H]1CC[C@@H](c2cccc(C(F)F)c2)N(C(=O)C(=O)Nc2cncc(C(N)=O)c2)C1 (racemic) [Compound 268, rac-5-{2-[(2R,5S)-2-[3-(Difluoromethyl)phenyl]-5-methylpiperidin-1-yl]-2-oxoacetamido}pyridine-3-carboxamide]
- IC50 (PRMT5 [1]): 50 to 500 nM
- IC50 (PRMT5 [2]): 50 to 500 nM
- IC50 (PRMT5 [3]): < 50 nM
- IC50 [4]: > 1000 nM
- IC50 [5]: 100 to 1000 nM
- MTAP intact/deleted ratio [5]: A (an IC50 ratio greater than or equal to 10 fold)
- IC50 [6]: 1000 to 10000 nM

Structure (SMILES): C[C@@H]1CC[C@@H](c2ccc3c(c2)OCO3)N(C(=O)C(=O)Nc2cncc(C(N)=O)c2)C1 (racemic) [Compound 270, rac-5-{2-[(2R,5S)-2-(1,3-Dioxaindan-5-yl)-5-methylpiperidin-1-yl]-2-oxoacetamido}pyridine-3-carboxamide]
- IC50 (PRMT5 [1]): 50 to 500 nM
- IC50 (PRMT5 [2]): 50 to 500 nM
- IC50 (PRMT5 [3]): < 50 nM
- IC50 [4]: > 1000 nM
- IC50 [5]: < 100 nM
- MTAP intact/deleted ratio [5]: A (an IC50 ratio greater than or equal to 10 fold)
- IC50 [6]: 1000 to 10000 nM

Structure (SMILES): C[C@@H]1CC[C@@H](c2ccc(OC(F)F)cc2)N(C(=O)C(=O)Nc2cncc(C(N)=O)c2)C1 (racemic) [Compound 271, rac-5-{2-[(2R,5S)-2-[4-(Difluoromethoxy)phenyl]-5-methylpiperidin-1-yl]-2-oxoacetamido}pyridine-3-carboxamide]
- IC50 (PRMT5 [1]): 50 to 500 nM
- IC50 (PRMT5 [2]): 50 to 500 nM
- IC50 (PRMT5 [3]): < 50 nM
- IC50 [4]: > 1000 nM
- IC50 [5]: 100 to 1000 nM
- MTAP intact/deleted ratio [5]: A (an IC50 ratio greater than or equal to 10 fold)
- IC50 [6]: 1000 to 10000 nM

Structure (SMILES): C[C@@H]1CC[C@@H](c2ccc3nncn3c2)N(C(=O)C(=O)Nc2cncc(C(N)=O)c2)C1 (racemic) [Compound 272, rac-5-{2-[(2R,5S)-5-Methyl-2-{[1,2,4]triazolo[4,3-a]pyridin-6-yl}piperidin-1-yl]-2-oxoacetamido}pyridine-3-carboxamide]
- IC50 (PRMT5 [1]): 50 to 500 nM
- IC50 (PRMT5 [2]): 50 to 500 nM
- IC50 (PRMT5 [3]): 50 to 500 nM
- IC50 [4]: > 1000 nM
- IC50 [5]: > 1000 nM
- MTAP intact/deleted ratio [5]: C (an IC50 ratio of less than 3 fold)
- IC50 [6]: > 10000 nM

Structure (SMILES): C[C@@H]1CC[C@@H](c2ccc(CC3CC3)cc2)N(C(=O)C(=O)Nc2cncc(C(N)=O)c2)C1 (racemic) [Compound 273, rac-5-{2-[(2R,5S)-2-[4-(Cyclopropylmethyl)phenyl]-5-methylpiperidin-1-yl]-2-oxoacetamido}pyridine-3-carboxamide]
- IC50 (PRMT5 [1]): 50 to 500 nM
- IC50 (PRMT5 [2]): 50 to 500 nM
- IC50 (PRMT5 [3]): < 50 nM
- IC50 [4]: > 1000 nM
- IC50 [5]: 100 to 1000 nM
- MTAP intact/deleted ratio [5]: A (an IC50 ratio greater than or equal to 10 fold)
- IC50 [6]: 1000 to 10000 nM

Structure (SMILES): C[C@@H]1CC[C@@H](c2ccc(F)nc2)N(C(=O)C(=O)Nc2cncc(C(N)=O)c2)C1 (racemic) [Compound 276, rac-5-{2-[(2R,5S)-2-(6-Fluoropyridin-3-yl)-5-methylpiperidin-1-yl]-2-oxoacetamido}pyridine-3-carboxamide]
- IC50 (PRMT5 [1]): 50 to 500 nM
- IC50 (PRMT5 [2]): 50 to 500 nM
- IC50 (PRMT5 [3]): < 50 nM
- IC50 [4]: > 1000 nM
- IC50 [5]: 100 to 1000 nM
- MTAP intact/deleted ratio [5]: A (an IC50 ratio greater than or equal to 10 fold)
- IC50 [6]: > 10000 nM

Structure (SMILES): C[C@@H]1CC[C@@H](c2ccc3c(c2)CCC3)N(C(=O)C(=O)Nc2cncc(C(N)=O)c2)C1 (racemic) [Compound 277, rac-5-{2-[(2R,5S)-2-(2,3-Dihydro-1H-inden-5-yl)-5-methylpiperidin-1-yl]-2-oxoacetamido}pyridine-3-carboxamide]
- IC50 (PRMT5 [1]): 50 to 500 nM
- IC50 (PRMT5 [2]): 50 to 500 nM
- IC50 (PRMT5 [3]): < 50 nM
- IC50 [4]: > 1000 nM
- IC50 [5]: 100 to 1000 nM
- MTAP intact/deleted ratio [5]: A (an IC50 ratio greater than or equal to 10 fold)
- IC50 [6]: 1000 to 10000 nM

Structure (SMILES): C[C@@H]1CC[C@@H](c2cccc(OC(F)(F)F)c2)N(C(=O)C(=O)Nc2cncc(C(N)=O)c2)C1 (racemic) [Compound 279, rac-5-{2-[(2R,5S)-5-Methyl-2-[3-(trifluoromethoxy)phenyl]piperidin-1-yl]-2-oxoacetamido}pyridine-3-carboxamide]
- IC50 (PRMT5 [1]): 50 to 500 nM
- IC50 (PRMT5 [2]): 50 to 500 nM
- IC50 (PRMT5 [3]): < 50 nM
- IC50 [4]: > 1000 nM
- IC50 [5]: 100 to 1000 nM
- MTAP intact/deleted ratio [5]: A (an IC50 ratio greater than or equal to 10 fold)
- IC50 [6]: 1000 to 10000 nM

Structure (SMILES): C[C@@H]1CC[C@@H](c2ccc(Cl)c(N)c2)N(C(=O)C(=O)Nc2cncc(C(N)=O)c2)C1 (racemic) [Compound 280, rac-5-{2-[(2R,5S)-2-(3-Amino-4-chlorophenyl)-5-methylpiperidin-1-yl]-2-oxoacetamido}pyridine-3-carboxamide]
- IC50 (PRMT5 [1]): 50 to 500 nM
- IC50 (PRMT5 [2]): 50 to 500 nM
- IC50 (PRMT5 [3]): < 50 nM
- IC50 [4]: > 1000 nM
- IC50 [5]: 100 to 1000 nM
- MTAP intact/deleted ratio [5]: A (an IC50 ratio greater than or equal to 10 fold)
- IC50 [6]: 1000 to 10000 nM

Structure (SMILES): C[C@@H]1CC[C@@H](c2ccc3c(c2)CCO3)N(C(=O)C(=O)Nc2cncc(C(N)=O)c2)C1 (racemic) [Compound 282, rac-5-{2-[(2R,5S)-2-(2,3-Dihydro-1-benzofuran-5-yl)-5-methylpiperidin-1-yl]-2-oxoacetamido}pyridine-3-carboxamide]
- IC50 (PRMT5 [1]): > 500 nM
- IC50 (PRMT5 [2]): > 500 nM
- IC50 (PRMT5 [3]): 50 to 500 nM
- IC50 [4]: > 1000 nM
- IC50 [5]: 100 to 1000 nM
- MTAP intact/deleted ratio [5]: A (an IC50 ratio greater than or equal to 10 fold)
- IC50 [6]: > 10000 nM

Structure (SMILES): Cc1cc(NC(=O)C(=O)N2C[C@H](C(N)=O)CC[C@H]2c2ccccc2)cnc1N (racemic) [Compound 315]
- IC50 (PRMT5 [1]): 50 to 500 nM
- IC50 (PRMT5 [2]): 50 to 500 nM
- IC50 (PRMT5 [3]): 50 to 500 nM
- IC50 [4]: > 1000 nM
- IC50 [5]: 100 to 1000 nM
- MTAP intact/deleted ratio [5]: A (an IC50 ratio greater than or equal to 10 fold)
- IC50 [6]: > 10000 nM

Structure (SMILES): NC(=O)c1cncc(NC(=O)C(=O)N2C[C@@H](CC(F)(F)F)CC[C@H]2c2ccccc2)c1 (racemic) [Compound 318, 5-[[2-Oxo-2-[(2R,5S)-2-phenyl-5-(2,2,2-trifluoroethyl)-1-piperidyl]acetyl]amino]pyridine-3-carboxamide]
- IC50 (PRMT5 [1]): > 500 nM
- IC50 (PRMT5 [2]): > 500 nM
- IC50 (PRMT5 [3]): 50 to 500 nM
- IC50 [4]: > 1000 nM
- IC50 [5]: > 1000 nM
- MTAP intact/deleted ratio [5]: C (an IC50 ratio of less than 3 fold)
- IC50 [6]: > 10000 nM

Structure (SMILES): C[C@@H]1CC[C@@H](c2ccc(Cl)c(F)c2)N(C(=O)C(=O)Nc2cncc(C(N)=O)c2)C1 (racemic) [Compound 327, rac-5-{2-[(2R,5S)-2-(4-Chloro-3-fluorophenyl)-5-methylpiperidin-1-yl]-2-oxoacetamido}pyridine-3-carboxamide]
- IC50 (PRMT5 [1]): 50 to 500 nM
- IC50 (PRMT5 [2]): 50 to 500 nM
- IC50 (PRMT5 [3]): 50 to 500 nM
- IC50 [4]: > 1000 nM
- IC50 [5]: < 100 nM
- MTAP intact/deleted ratio [5]: A (an IC50 ratio greater than or equal to 10 fold)
- IC50 [6]: 1000 to 10000 nM
